Source: US20070128217A1 (priority 2003, published 2007)

Columns and labels:
[1] = system: rabbit serum obtained by immunizing a rabbit with the SARS-CoV strain Frankfurt 1; format: binding; set-up: Binding of a rabbit serum to linear peptides / Binding of a rabbit serum to looped peptides / Rabbit serum linear peptides / Rabbit serum looped peptides / Binding of a rabbit serum to linear peptides of protein N of SARS-CoV Urbani (Rabbit serum linear peptides) / Binding of a rabbit serum to looped/cyclic peptides of protein N of SARS-CoV Urbani (Rabbit serum looped peptides): unit not given here
[2] = system: control sera (pooled serum of ten healthy LUMC hospital workers; commercial negative donor pooled serum from the Dutch bloodbank); format: binding, human; set-up: Binding of Control serum LUMC to linear peptides / Binding of Control serum Blood-bank to linear peptides / Binding of Control serum LUMC to looped peptides / Binding of Control Serum Blood-Bank to Looped peptides / Binding of Control serum LUMC to linear peptides of the protein M of SARS-CoV Urbani / Binding of Control serum Blood-bank to linear peptides of the protein M of SARS-CoV Urbani / Binding of Control serum LUMC to looped peptides of the protein M of SARS-CoV Urbani / Binding of Control Serum Blood-Bank to Looped peptides of the protein M of SARS-CoV Urbani: unit not given here
[3] = system: antibodies in sera from SARS patients (sera 1a, 1b, 2, 6, 37, 62, London, SARS-yellow, SARS-green); format: binding, human; set-up: Binding of serum 6 to linear peptides of protein X1 of SARS-CoV Urbani / Binding of serum 37 to linear peptides of protein X1 of SARS-CoV Urbani / Binding of serum 6 to looped/cyclic peptide (PEPSCAN-ELISA) / Binding of serum 37 to looped/cyclic peptide (PEPSCAN-ELISA) / Binding of serum 37 to looped/cyclic peptides of protein X1 of SARS-CoV Urbani / Binding of serum 6 to linear peptides of protein X2 / Binding of serum 37 to linear peptides of protein X2 / Binding of serum 37 to looped/cyclic peptides of protein X2 of SARS-CoV Urbani / Binding of serum 6 to linear peptides of protein M of SARS-CoV Urbani / Binding of serum 37 to linear peptides of protein M of SARS-CoV Urbani / Binding of serum 6 to looped/cyclic peptides of protein M of SARS-CoV Urbani / Binding of serum 37 to looped/cyclic peptides of protein M of SARS-CoV Urbani / Binding of serum 6 to linear peptides of protein X3 of SARS-CoV Urbani / Binding of serum 37 to linear peptides of protein X3 of SARS-CoV Urbani / Binding of serum 37 to looped/cyclic peptides of protein X3 of SARS-CoV Urbani / Binding of serum 6 to linear peptides of protein X4 of SARS-CoV Urbani / Binding of serum 37 to linear peptides of protein X4 of SARS-CoV Urbani / Binding of serum 37 to looped/cyclic peptides of protein X4 of SARS-CoV Urbani / Binding of serum 6 to linear peptides of protein X5 of SARS-CoV Urbani / Binding of serum 37 to linear peptides of protein X5 of SARS-CoV Urbani / Binding of serum 37 to looped/cyclic peptides of protein X5 of SARS-CoV Urbani / Binding of serum 6 to linear peptides of protein N of SARS-CoV Urbani / Binding of serum 37 to linear peptides of protein N of SARS-CoV Urbani / Binding of serum 6 to linear peptide (PEPSCAN-ELISA) / Binding of serum 1a to looped/cyclic peptides of protein N of SARS-CoV Urbani / Binding of serum 1b to looped/cyclic peptides of protein N of SARS-CoV Urbani / Binding of serum 2 to looped/cyclic peptides of protein N of SARS-CoV Urbani / Binding of serum 6 to looped/cyclic peptides of protein N of SARS-CoV Urbani / Binding of serum 37 to looped/cyclic peptides of protein N of SARS-CoV Urbani / Binding of serum 62 to looped/cyclic peptides of protein N of SARS-CoV Urbani / Binding of serum London to looped/cyclic peptides of protein N of SARS-CoV Urbani / Binding of serum SARS-green to looped/cyclic peptides of protein N of SARS-CoV Urbani: unit not given here

VYRINWVTGGIAIAM
Rabbit serum linear peptides [1]: 0.3 | Rabbit serum looped peptides [1]: 0.4 | Binding of Control Serum Blood-Bank to Looped peptides of the protein M of SARS-CoV Urbani [2]: 0.7 | Binding of Control serum Blood-bank to linear peptides of the protein M of SARS-CoV Urbani [2]: 0.7 | Binding of Control serum LUMC to linear peptides of the protein M of SARS-CoV Urbani [2]: 1.0 | Binding of Control serum LUMC to looped peptides of the protein M of SARS-CoV Urbani [2]: 0.8 | Binding of serum 1a to linear peptides of protein M of SARS-CoV Urbani [3]: 0.9 | Binding of serum 1a to looped/cyclic peptides of protein M of SARS-CoV Urbani [3]: 0.7 | Binding of serum 1b to linear peptides of protein M of SARS-CoV Urbani [3]: 0.8 | Binding of serum 1b to looped/cyclic peptides of protein M of SARS-CoV Urbani [3]: 0.4 | Binding of serum 2 to linear peptides of protein M of SARS-CoV Urbani [3]: 0.8 | Binding of serum 2 to looped/cyclic peptides of protein M of SARS-CoV Urbani [3]: 0.6 | Binding of serum 6 to linear peptides of protein M of SARS-CoV Urbani [3]: 1.0 | Binding of serum 6 to looped/cyclic peptides of protein M of SARS-CoV Urbani [3]: 0.5 | Binding of serum 37 to linear peptides of protein M of SARS-CoV Urbani [3]: 0.6 | Binding of serum 37 to looped/cyclic peptides of protein M of SARS-CoV Urbani [3]: 0.7 | Binding of serum 62 to linear peptides of protein M of SARS-CoV Urbani [3]: 0.6 | Binding of serum 62 to looped/cyclic peptides of protein M of SARS-CoV Urbani [3]: 1.1 | Binding of serum London to linear peptides of protein M of SARS-CoV Urbani [3]: 0.6 | Binding of serum London to looped/cyclic peptides of protein M of SARS-CoV Urbani [3]: 0.2 | Binding of serum SARS-green to linear peptides of protein M of SARS-CoV Urbani [3]: 0.7 | Binding of serum SARS-green to looped/cyclic peptides of protein M of SARS-CoV Urbani [3]: 0.3 | Binding of serum SARS-yellow to linear peptides of protein M of SARS-CoV Urbani [3]: 0.3 | Binding of serum SARS-yellow to looped/cyclic peptides of protein M of SARS-CoV Urbani [3]: 0.8

WKCKSKNPLLYDANY
Binding of a rabbit serum to linear peptides [1]: 0.1 | Binding of a rabbit serum to looped peptides [1]: 0.6 | Binding of Control Serum Blood-Bank to Looped peptides [2]: 0.6 | Binding of Control serum Blood-bank to linear peptides [2]: 0.7 | Binding of Control serum LUMC to linear peptides [2]: 0.8 | Binding of Control serum LUMC to looped peptides [2]: 0.5 | Binding of serum 1a to linear peptides of protein X1 of SARS-CoV Urbani [3]: 0.8 | Binding of serum 1a to looped/cyclic peptide (PEPSCAN-ELISA) [3]: 0.6 | Binding of serum 1b to linear peptides of protein X1 of SARS-CoV Urbani [3]: 0.8 | Binding of serum 1b to looped/cyclic peptide (PEPSCAN-ELISA) [3]: 0.5 | Binding of serum 2 to linear peptides of protein X1 of SARS-CoV Urbani [3]: 0.6 | Binding of serum 2 to looped/cyclic peptide (PEPSCAN-ELISA) [3]: 0.4 | Binding of serum 6 to linear peptides of protein X1 of SARS-CoV Urbani [3]: 0.7 | Binding of serum 6 to looped/cyclic peptide (PEPSCAN-ELISA) [3]: 0.3 | Binding of serum 37 to linear peptides of protein X1 of SARS-CoV Urbani [3]: 0.8 | Binding of serum 37 to looped/cyclic peptide (PEPSCAN-ELISA) [3]: 0.6 | Binding of serum 62 to linear peptides of protein X1 of SARS-CoV Urbani [3]: 0.7 | Binding of serum 62 to looped/cyclic peptide (PEPSCAN-ELISA) [3]: 0.6 | Binding of serum London to linear peptides of protein X1 of SARS-CoV Urbani [3]: 0.3 | Binding of serum London to looped/cyclic peptide (PEPSCAN-ELISA) [3]: 0.2 | Binding of serum SARS-green to linear peptides of protein X1 of SARS-CoV Urbani [3]: 0.4 | Binding of serum SARS-green to looped/cyclic peptide (PEPSCAN-ELISA) [3]: 0.3 | Binding of serum SARS-yellow to linear peptides of protein X1 of SARS-CoV Urbani [3]: 0.5 | Binding of serum SARS-yellow to looped/cyclic peptide (PEPSCAN-ELISA) [3]: 0.5

WLCALGKVLPFHRWH
Rabbit serum linear peptides [1]: 0.6 | Rabbit serum looped peptides [1]: 0.8 | Binding of Control Serum Blood-Bank to Looped peptides [2]: 0.4 | Binding of Control serum Blood-bank to linear peptides [2]: 0.9 | Binding of Control serum LUMC to linear peptides [2]: 0.6 | Binding of Control serum LUMC to looped peptides [2]: 0.6 | Binding of serum 1a to linear peptides of protein X5 of SARS-CoV Urbani [3]: 0.7 | Binding of serum 1a to looped/cyclic peptides of protein X5 of SARS-CoV Urbani [3]: 0.5 | Binding of serum 1b to linear peptides of protein X5 of SARS-CoV Urbani [3]: 0.6 | Binding of serum 1b to looped/cyclic peptides of protein X5 of SARS-CoV Urbani [3]: 0.4 | Binding of serum 2 to linear peptides of protein X5 of SARS-CoV Urbani [3]: 0.7 | Binding of serum 2 to looped/cyclic peptides of protein X5 of SARS-CoV Urbani [3]: 0.6 | Binding of serum 6 to linear peptides of protein X5 of SARS-CoV Urbani [3]: 0.8 | Binding of serum 6 to looped/cyclic peptides of protein X5 of SARS-CoV Urbani [3]: 0.7 | Binding of serum 37 to linear peptides of protein X5 of SARS-CoV Urbani [3]: 0.7 | Binding of serum 37 to looped/cyclic peptides of protein X5 of SARS-CoV Urbani [3]: 0.5 | Binding of serum 62 to linear peptides of protein X5 of SARS-CoV Urbani [3]: 0.8 | Binding of serum 62 to looped/cyclic peptides of protein X5 of SARS-CoV Urbani [3]: 0.7 | Binding of serum London to linear peptides of protein X5 of SARS-CoV Urbani [3]: 0.8 | Binding of serum London to looped/cyclic peptides of protein X5 of SARS-CoV Urbani [3]: 0.5 | Binding of serum SARS-green to linear peptides of protein X5 of SARS-CoV Urbani [3]: 0.6 | Binding of serum SARS-green to looped/cyclic peptides of protein X5 of SARS-CoV Urbani [3]: 0.5 | Binding of serum SARS-yellow to linear peptides of protein X5 of SARS-CoV Urbani [3]: 0.2 | Binding of serum SARS-yellow to looped/cyclic peptides of protein X5 of SARS-CoV Urbani [3]: 0.6
